Measurements taken from patent publication US10577329B2, “Fused-bicyclic aryl quinolinone derivatives as mutant-isocitrate dehydrogenase inhibitors” (FORMA Therapeutics, Inc., priority 2015, dated 2020).
pIC50: −log10 of the molar value. Where two headings read alike, the source gives them in different places.

Legend:
[1] = biological target: IDH1-R132H recombinant protein (Homo sapiens, UniProt O75874, R132H); assay: IDH1-R132H enzymatic assay (NADPH consumption, diaphorase/resazurin readout); format: biochemical; settings: 30 nM IDH1-R132H, inhibition of NADPH consumption; read-out: Enzyme IDH1 R132H IC50
Experimental: (§1) Example 34—IDH1-R132H and IDH1-R132C Enzymatic Assay
(§2) Assays were performed in a 384-well black plate. An aliquot of 250 nL of compound was incubated with 10 μL of 30 nM IDH1-R132H or 10 nM IDH1-R132C recombinant protein in assay buffer (50 mM Tris pH=7.5, 150 mM NaCl, 5 mM MgCl2, 0.1% (w/v) Bovine Serum Albumin, and 0.01% Triton X-100) in each well at 25° C. for 15 minutes. After the plate was centrifuged briefly, an aliquot of 10 μL of 2 mM α-ketoglutarate and 20 μM NADPH solution prepared in assay buffer was then added to each well and the reaction was maintained at 25° C. for 45 minutes. An aliquot of 10 μL of diaphorase solution (0.15 U/mL diaphorase and 30 μM Resazurin in assay buffer) was added to each well. The plate was maintained at 25° C. for 15 minutes and then read on a plate reader with excitation and emission wavelengths at 535 nm and 590 nm, respectively. The IC50 of a given compound was calculated by fitting the dose response curve of inhibition of NADPH consumption at a given concentration with the four parameter logistic equation.

[2] = test system: HCT116 isogenic IDH1-R132C mutant cells; assay: Cellular 2-HG assay using HCT116 mutant IDH1-R132C cells; format: cell-based; settings: Homo sapiens, read-out: HCT116 IDH1 R132C IC50
Experimental: (§3) HCT116 isogenic IDH1-R132H and IDH1-R132C mutant cells were cultured in growth media (McCoy's 5A, 10% fetal bovine serum, 1× antibiotic-antimycotic solution and 0.3 mg/mL G418) in 5% CO2 in an incubator at 37° C. To prepare the assay, cells were trypsinized and resuspended in assay media (McCoy's 5A with no L-glutamine, 10% fetal bovine serum, 1× antibiotic-antimycotic solution and 0.3 mg/mL G418). An aliquot of 10,000 cells/100 μL was transferred to each well of a clear 96-well tissue culture plate. The cells were incubated in 5% CO2 at 37° C. in an incubator overnight to allow for proper cell attachment. An aliquot of 50 μL of compound containing assay media were then added to each well and the assay plate was kept in 5% CO2 at 37° C. in an incubator for 24 hours. The media was then removed from each well and 150 μL of a methanol/water mixture (80/20 v/v) was added to each well. The plates were kept at −80° C. freezer overnight to allow for complete cell lysis. An aliquot of 125 μL of extracted supernatant was analyzed by RapidFire high-throughout-mass spectrometry (Agilent) to determine the cellular 2-HG level. The IC50 of a given compound was calculated by fitting the dose response curve of cellular 2-HG inhibition at a given concentration with the four parameter logistic equation

[3] = test system: HCT116 isogenic IDH1-R132H mutant cells; assay: Cellular 2-HG assay using HCT116 mutant IDH1-R132H cells; format: cell-based; settings: Homo sapiens, read-out: HCT116 IDH1 R132H IC50
Experimental: as §3

[4] = biological target: IDH1-R132C recombinant protein (Homo sapiens, UniProt O75874, R132C); assay: IDH1-R132C enzymatic assay (NADPH consumption, diaphorase/resazurin readout); format: biochemical; settings: 10 nM IDH1-R132C, inhibition of NADPH consumption; read-out: Enzyme IDH1 R132C IC50
Experimental: as §1, §2

[5] = HCT-116, cellular 2-HG inhibition, 24 hours, RapidFire mass spectrometry

Chain of IDH1-R132C recombinant protein (O75874 whole entry R132C): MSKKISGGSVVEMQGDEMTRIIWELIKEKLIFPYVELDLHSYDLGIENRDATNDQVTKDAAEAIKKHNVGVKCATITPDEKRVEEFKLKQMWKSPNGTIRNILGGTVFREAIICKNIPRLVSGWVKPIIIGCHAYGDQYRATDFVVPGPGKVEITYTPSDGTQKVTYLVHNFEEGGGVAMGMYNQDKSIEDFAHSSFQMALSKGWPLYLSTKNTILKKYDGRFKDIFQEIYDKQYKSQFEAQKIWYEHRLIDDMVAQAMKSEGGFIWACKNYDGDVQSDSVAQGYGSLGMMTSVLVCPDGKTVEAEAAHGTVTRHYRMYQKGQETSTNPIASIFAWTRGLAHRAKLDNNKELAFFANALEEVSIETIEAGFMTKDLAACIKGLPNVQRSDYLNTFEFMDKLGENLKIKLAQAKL
Chain of IDH1-R132H recombinant protein (O75874 whole entry R132H): as the sequence (O75874 whole entry R132C) above, with C132H counted along it

COc1cc2[nH]c(=O)c(C(C)Nc3ncc4c(n3)N(C)C(=O)OC4)cc2cc1Cl (racemic) [Compound I-50, 6-chloro-7-methoxy-3-[1-({1-methyl-2-oxo-1H,2H,4H-pyrimido[4,5-d][1,3]oxazin-7-yl}amino)ethyl]-1,2-dihydroquinolin-2-one]
pIC50 [1]: > 7.00 | pIC50 ([2]; HCT-116, 24 h): > 7.00 | pIC50 ([3]; HCT-116, 24 h): > 7.00 | pIC50 [4]: > 7.00

C[C@H](Nc1ncc2cn[nH]c2n1)c1cc2cc(Cl)ccc2[nH]c1=O [Compound I-45, 6-chloro-3-[(1S)-1-({1H-pyrazolo[3,4-d]pyrimidin-6-yl}amino)ethyl]-1,2-dihydroquinolin-2-one]
pIC50 ([2]; HCT-116, 24 h): 6.00 to 7.00 | pIC50 ([3]; HCT-116, 24 h): 6.00 to 7.00

C[C@H](Nc1ncc2c(n1)N(C)C(=O)OC2)c1cc2cc(Cl)ccc2[nH]c1=O [Compound I-47, 6-chloro-3-[(1S)-1-({1-methyl-2-oxo-1H,2H,4H-pyrimido[4,5-d][1,3]oxazin-7-yl}amino)ethyl]-1,2-dihydroquinolin-2-one]
pIC50 [2, 5]: > 7.00 | pIC50 [3, 5]: > 7.00

C[C@H](Nc1ncc2c(n1)N(C)C(=O)OC2)c1cc2cc(Cl)c(OCc3ccccn3)cc2[nH]c1=O [Compound I-48, 6-chloro-3-[(1S)-1-({1-methyl-2-oxo-1H,2H,4H-pyrimido[4,5-d][1,3]oxazin-7-yl}amino)ethyl]-7-(pyridin-2-ylmethoxy)-1,2-dihydroquinolin-2-one]
pIC50 [2, 5]: > 7.00 | pIC50 [3, 5]: > 7.00

C[C@H](Nc1ncc2c(n1)NC(=O)OC2)c1cc2cc(Cl)ccc2[nH]c1=O [Compound I-49, 6-chloro-3-[(1S)-1-({2-oxo-1H,2H,4H-pyrimido[4,5-d][1,3]oxazin-7-yl}amino)ethyl]-1,2-dihydroquinolin-2-one]
pIC50 [2, 5]: 6.00 to 7.00 | pIC50 [3, 5]: > 7.00

COc1cc2[nH]c(=O)c([C@H](C)Nc3ncc4c(n3)N(C)C(=O)OC4)cc2cc1Cl [Compound I-51, 6-chloro-7-methoxy-3-[(1S)-1-({1-methyl-2-oxo-1H,2H,4H-pyrimido[4,5-d][1,3]oxazin-7-yl}amino)ethyl]-1,2-dihydroquinolin-2-one]
pIC50 ([2]; HCT-116, 24 h): > 7.00 | pIC50 ([3]; HCT-116, 24 h): > 7.00

CC(C)Cn1c(=O)oc2cnc(N[C@@H](C)c3cc4cc(Cl)ccc4[nH]c3=O)nc21 [Compound I-55, 6-chloro-3-[(1S)-1-{[3-(2-methylpropyl)-2-oxo-2H,3H-[1,3]oxazolo[4,5-d]pyrimidin-5-yl]amino}ethyl]-1,2-dihydroquinolin-2-one]
pIC50 [2, 5]: 5.00 to 6.00 | pIC50 [3, 5]: 6.00 to 7.00

C[C@H](Nc1ncc2oc(=O)[nH]c2n1)c1cc2cc(Cl)ccc2[nH]c1=O [Compound I-56, 6-chloro-3-[(1S)-1-({2-oxo-2H,3H-[1,3]oxazolo[4,5-d]pyrimidin-5-yl}amino)ethyl]-1,2-dihydroquinolin-2-one]
pIC50 ([2]; HCT-116, 24 h): < 5.00 | pIC50 ([3]; HCT-116, 24 h): 5.00 to 6.00

C[C@H](Nc1ncc2oc(=O)n(C)c2n1)c1cc2cc(Cl)ccc2[nH]c1=O [Compound I-57, 6-chloro-3-[(1S)-1-({3-methyl-2-oxo-2H,3H-[1,3]oxazolo[4,5-d]pyrimidin-5-yl}amino)ethyl]-1,2-dihydroquinolin-2-one]
pIC50 ([2]; HCT-116, 24 h): 6.00 to 7.00 | pIC50 ([3]; HCT-116, 24 h): 6.00 to 7.00

C[C@H](Nc1ncc2[nH]c(=O)n(C)c2n1)c1cc2cc(Cl)ccc2[nH]c1=O [Compound I-58, 6-chloro-3-[(1S)-1-[(9-methyl-8-oxo-8,9-dihydro-7H-purin-2-yl)amino]ethyl]-1,2-dihydroquinolin-2-one]
pIC50 ([2]; HCT-116, 24 h): 5.00 to 6.00 | pIC50 ([3]; HCT-116, 24 h): 6.00 to 7.00

C[C@H](Nc1ncc2c(n1)NC(=O)C2)c1cc2cc(Cl)ccc2[nH]c1=O [Compound I-60, 6-chloro-3-[(1S)-1-({6-oxo-5H,6H,7H-pyrrolo[2,3-d]pyrimidin-2-yl}amino)ethyl]-1,2-dihydroquinolin-2-one]
pIC50 [2, 5]: 5.00 to 6.00 | pIC50 [3, 5]: 6.00 to 7.00

C[C@H](Nc1ncc2c(n1)N(C)C(=O)C2)c1cc2cc(Cl)ccc2[nH]c1=O [Compound I-61, 6-chloro-3-[(1S)-1-({7-methyl-6-oxo-5H,6H,7H-pyrrolo[2,3-d]pyrimidin-2-yl}amino)ethyl]-1,2-dihydroquinolin-2-one]
pIC50 [2, 5]: 6.00 to 7.00 | pIC50 [3, 5]: 6.00 to 7.00
